Data from US20110039787A1, “COMPOSITIONS, KITS AND METHODS FOR TREATING BENIGN PROSTATE HYPERPLASIA” (priority 2009, published 2011).
Square brackets hold non-standard residues; d marks the D form. Peptide text beside a SMILES is read from it. * marks the point of attachment. dPhe(4-NHCONH2) = NC(=O)Nc1ccc(C[C@@H](N)C(=O)O)cc1; Dihydroorotyl(S) = O=C1C[C@@H](C(=O)*)NC(=O)N1; dPhe(4-Cl) = N[C@H](Cc1ccc(Cl)cc1)C(=O)O; Phe(4-NH2) = Nc1ccc(C[C@H](N)C(=O)O)cc1; d2Nal = N[C@H](Cc1ccc2ccccc2c1)C(=O)O; Lys(iPr) = CC(C)NCCCC[C@H](N)C(=O)O; d3Pal = N[C@H](Cc1cccnc1)C(=O)O

Assays:
men with BPH [1] = assay: Peak (maximal) urinary flow by flowmetry; type: in vivo
Protocol: (§1) For each patient, the following parameters were measured or assessed (using the methods discussed below), at time points of screening day 0 (e.g., −7 days, “baseline”), day 14, day 28, and day 42:
(§2) 2) Efficacy Endpoints—the measured Peak Urinary Flow, Post-void Residual Volume, and Prostate Volume.
Peak urinary flow was determined by flowmetry using the Uropower device (Wiest, World of Medicine AG, Germany). The device fulfilled the International Continence Society standards for maximum urinary flow. The measurement of urinary flow was done in a sitting position.
The Qmax is the maximal urinary flow rate. It is a traditional parameter used in BPH trials and is a good indicator of degree of bladder outlet obstruction (BOO).

prostate volume = assay: Prostate volume by transrectal ultrasound; type: in vivo, men
Protocol: as §1, §2
(§3) After the initial 6-week treatment period of the exploratory study had been completed, a 12-month follow-up period looking at long-term efficacy commenced. Interim data of the main efficacy variables (IPSS, IPSS Global QoL, prostate volume, urinary flow, and post-void residual volume—measured as set out below) after 6 months' follow-up are also presented herein at Tables 1, 2, 3, and FIG. 1b. FIG. 1b also includes IPSS data at 9 and 12 months.
The prostate volume was measured by transrectal ultrasound with the patient in a lateral position. The prostatic gland was sonicated from two directions perpendicular to one another resulting in three cursor positions set by the urologist. The volume was calculated automatically. The investigations were performed by urologists by methods known in the art.

men with BPH [2] = assay: IPSS global QoL question, clinical trial in BPH patients; type: in vivo
Protocol: as §1, §3
Included in the IPSS is one item to evaluate QoL (i.e., IPSS-global QoL). The Global QoL Question was developed alongside the IPSS and was officially included as part of the IPSS in 1993 when the WHO formally recommended the IPSS for both symptom and QoL assessment. […] This question assesses the degree to which patients find their symptoms bothersome. Patients are asked about how they would feel if they were to spend the rest of their lives with their prostate symptoms just as they are now. The choices for answering this quality of life question range from “delighted” (rating=0) to “terrible” (rating=6).

testosterone = assay: Serum testosterone concentration-time profile (LC-MS/MS); type: in vivo, men; conditions: 32 mg
[3] = across all patient groups, Day 42
[4] = 16+16 mg, Month 6 follow-up, n=6
[5] = 32+32 mg, Month 6 follow-up, n=7
[6] = combined group (all doses), Day 42

For `CC(=O)N[C@H](Cc1ccc2ccccc2c1)C(=O)N[C@H](Cc1ccc(Cl)cc1)C(=O)N[C@H](Cc1cccnc1)C(=O)N[C@@H](CO)C(=O)N[C@@H](Cc1ccc(NC(=O)[C@@H]2CC(=O)NC(=O)N2)cc1)C(=O)N[C@H](Cc1ccc(NC(N)=O)cc1)C(=O)N[C@@H](CC(C)C)C(=O)N[C@@H](CCCCNC(C)C)C(=O)N1CCC[C@H]1C(=O)N[C@H](C)C(N)=O` [Degarelix, D-Alaninamide, N-acetyl-3-(2-naphthalenyl)-D-alanyl-4-chloro-D-phenylalanyl-3-(3-pyridinyl)-D-alanyl-L-seryl-4-[[[(4S)-hexahydro-2,6-dioxo-4-pyrimidinyl]carbonyl]amino]-L-phenylalanyl-4-[(aminocarbonyl)amino]-D-phenylalanyl-L leucyl-N6-(1-methylethyl)-L-lysyl-L-prolyl] (Ac-[d2Nal][dPhe(4-Cl)][d3Pal]S[Phe(4-NH2)](Dihydroorotyl(S))[dPhe(4-NHCONH2)]L[Lys(iPr)]P[dA]-NH2), the “Mean maximal urinary flow” value (men with BPH [1]; 32 mg, Day 42 (baseline 11.7)) was 11.2 mL/s, the “Mean maximal urinary flow” value (men with BPH [1]; 64 mg, Day 42 (baseline 9.1)) was 11.9 mL/s and the “Mean maximal urinary flow” value (men with BPH [1]; 16+16 mg, Day 42 (baseline 10.0)) was 10.1 mL/s. The “Mean maximal urinary flow” value (men with BPH [1]; 32+32 mg, Day 42 (baseline 9.7)) was 12.2 mL/s, the “Number of patients in whom maximal urinary flow decreased compared to baseline” value (men with BPH [1]; [3]) was 25 patients and the “Number of patients in whom maximal urinary flow increased compared to baseline” value (men with BPH [1]; [3]) was 24 patients. For the same compound, the “Number of patients in whom maximal urinary flow remained unchanged” value (men with BPH [1]; [3]) was 1 patient, the “Mean (SD) Prostate Volume” value (prostate volume; 32 mg, Day 42, N=12) was 34.8 (14.2) mL and the “Prostate Volume, Change from Baseline, mean (SD)” value (shortened to “Prostate Volume, Change … (SD)”) (prostate volume; 32 mg, Day 42, N=12) was −13.9 (14.7) mL. For the same compound, the “Prostate Volume, Percentage Change from Baseline, mean (SD)” value (“Prostate Volume, Percentage Change … (SD)” for short) (prostate volume; 32 mg, Day 42, N=12) was −25.1 (18.0) %, the “Mean (SD) Prostate Volume” value (prostate volume; 32 mg, Month 6 follow-up, n=7) was 34.3 (13.9) mL and the “Prostate Volume, Change … (SD)” value (prostate volume; 32 mg, Month 6 follow-up, n=7) was −11.6 (5.1) mL. For the same compound, the “Prostate Volume, Percentage Change … (SD)” value (prostate volume; 32 mg, Month 6 follow-up, n=7) was −25.6 (8.0) %, the “Mean (SD) Prostate Volume” value (prostate volume; 64 mg, Day 42, N=13) was 30.6 (10.5) mL and the “Prostate Volume, Change … (SD)” value (prostate volume; 64 mg, Day 42, N=13) was −8.2 (10.2) mL. The “Prostate Volume, Percentage Change … (SD)” value (prostate volume; 64 mg, Day 42, N=13) was −19.7 (23.2) %, the “Mean (SD) Prostate Volume” value (prostate volume; 64 mg, Month 6 follow-up, n=4) was 29.0 (3.4) mL and the “Prostate Volume, Change … (SD)” value (prostate volume; 64 mg, Month 6 follow-up, n=4) was −9.7 (10.4) mL. For the same compound, the “Prostate Volume, Percentage Change … (SD)” value (prostate volume; 64 mg, Month 6 follow-up, n=4) was −21.5 (20.6) %, the “Mean (SD) Prostate Volume” value (prostate volume; 16+16 mg, Day 42, N=13) was 34.5 (11.0) mL and the “Prostate Volume, Change … (SD)” value (prostate volume; 16+16 mg, Day 42, N=13) was −7.5 (7.7) mL. The “Prostate Volume, Percentage Change … (SD)” value (prostate volume; 16+16 mg, Day 42, N=13) was −17.0 (16.7) %, the “Mean (SD) Prostate Volume” value (prostate volume; [4]) was 29.6 (10.4) mL and the “Prostate Volume, Change … (SD)” value (prostate volume; [4]) was −11.2 (4.4) mL. For the same compound, the “Prostate Volume, Percentage Change … (SD)” value (prostate volume; [4]) was −27.8 (8.7) %, the “Mean (SD) Prostate Volume” value (prostate volume; 32+32 mg, Day 42, N=12) was 28.7 (8.2) mL and the “Prostate Volume, Change … (SD)” value (prostate volume; 32+32 mg, Day 42, N=12) was −9.4 (9.3) mL. The “Prostate Volume, Percentage Change … (SD)” value (prostate volume; 32+32 mg, Day 42, N=12) was −23.5 (20.9) %, the “Mean (SD) Prostate Volume” value (prostate volume; [5]) was 26.5 (6.0) mL and the “Prostate Volume, Change … (SD)” value (prostate volume; [5]) was −10.6 (8.8) mL. The “Prostate Volume, Percentage Change … (SD)” value (prostate volume; [5]) was −27.1 (17.3) %, the “Mean IPSS global QoL score, mean (SD)” value (men with BPH [2]; 32 mg, Day 42, N=12) was 1.8 (2.0) and the “Mean change from baseline in IPSS global QoL score, mean (SD)” value (shortened to “Mean change from baseline … (SD)”) (men with BPH [2]; 32 mg, Day 42, N=12) was −2.1 (3.0). For the same compound, the “Change from baseline in IPSS global QoL score, mean (SD)” value (men with BPH [2]; 32 mg, Month 6 follow-up, n=7) was −1.4 (1.1), the “Mean IPSS global QoL score, mean (SD)” value (men with BPH [2]; 32 mg, Month 6 follow-up, n=7) was 1.4 (1.5) and the “Mean IPSS global QoL score, mean (SD)” value (men with BPH [2]; 64 mg, Day 42, N=13) was 2.5 (1.3). For the same compound, the “Mean change from baseline … (SD)” value (men with BPH [2]; 64 mg, Day 42, N=13) was −2.2 (1.6), the “Change from baseline in IPSS global QoL score, mean (SD)” value (men with BPH [2]; 64 mg, Month 6 follow-up, n=4) was −0.8 (1.7) and the “Mean IPSS global QoL score, mean (SD)” value (men with BPH [2]; 64 mg, Month 6 follow-up, n=4) was 3.8 (1.3). The “Mean IPSS global QoL score, mean (SD)” value (men with BPH [2]; 16+16 mg, Day 42, N=13) was 2.9 (1.4), the “Mean change from baseline … (SD)” value (men with BPH [2]; 16+16 mg, Day 42, N=13) was −1.2 (1.4) and the “Change from baseline in IPSS global QoL score, mean (SD)” value (men with BPH [2]; [4]) was −0.3 (0.5). The “Mean IPSS global QoL score, mean (SD)” value (men with BPH [2]; [4]) was 4.2 (1.5), the “Mean IPSS global QoL score, mean (SD)” value (men with BPH [2]; 32+32 mg, Day 42, N=12) was 1.9 (1.6) and the “Mean change from baseline … (SD)” value (men with BPH [2]; 32+32 mg, Day 42, N=12) was −2.4 (1.9). For the same compound, the “Change from baseline in IPSS global QoL score, mean (SD)” value (men with BPH [2]; [5]) was −2.7 (2.1), the “Mean IPSS global QoL score, mean (SD)” value (men with BPH [2]; [5]) was 1.6 (0.8) and the “Patients feeling delighted, pleased, or mostly satisfied (IPSS Global QoL scores 0-2)” value (men with BPH [2]; [6]) was 58%. The “Patients feeling unhappy or terrible (IPSS Global QoL scores 5 and 6)” value (men with BPH [2]; [6]) was 12% and the “Greatest change from baseline in mean testosterone” value (testosterone) was -4.2 ng/mL.
